This is an account of results in article PMC12794078, “Real-Time Binding Kinetics of Small Molecules to CA IX in Live Suspension Cells Using SPR Microscopy” (ACS Medicinal Chemistry Letters, 2025).

SMILES strings stand for the structures. Read-outs that look alike come from different tables or passages of the source.

Test [1] has as its target CA IX on live Ramos B cells (Homo sapiens, UniProt Q16790). As to the kind of experiment: SPRM kinetic titration of small molecules on live Ramos B suspension cells (1:1 kinetic model, 600 ROIs).
Description: All cells were maintained in an incubator at 37 °C with 5% CO2 before seeding. For every experiment, cell viability was determined with Trypan blue using a TC20 cell counter (BioRad). PLL precoated SPRM sensor chips were prepared according to manufacturer’s protocol (Gibco, cat. # A3890401). 5K Ramos B cells at 99% viability were gently seeded onto PLL precoated SPRM sensor chips containing 600 μL of Mccoy medium 5A supplemented with 10% FBS and then incubated at 37 °C with 5% CO2. After 72 h of incubation, cells were washed with live cell imaging buffer (A59688DJ) twice and immediately followed by SPRM analysis. […] All experiments were performed with a commercially available Ramos B cell line.
SPRM is highly sensitive to ligand binding events on the cell membrane, which induces dielectric changes that are recorded as sensorgrams. Moreover, its high-resolution diffraction limited optics produces sensorgrams of subcellular response regions, enabling detailed evaluation of binding heterogeneity.
High resolution SPRM measurements were generated by uniformly segmenting the sensing area (600 μm × 450 μm area) into a virtual grid of 600 regions of interest (ROI). For every ROI, a 1:1 kinetic binding interaction model was applied. Bare area ROIs were subtracted as references from the cell area ROIs. The SPRM kinetic analysis results of all ROIs were aggregated for statistical analysis. ImageSPR software (Biosensing Instrument Inc., Tempe AZ) was used to generate the sensorgrams, fitting, and statistical analysis of binding interactions. ROIs that detected a response which fitted well to the kinetic interaction model were collectively plotted onto an isoaffinity scatter plot for statistical analysis of the binding heterogeneity (Figure ). Histograms extracted from the isoaffinity scatter plot were fit with Gaussian distributions to obtain mean values and standard deviations for the association rate (k a), dissociation rate (k d), and equilibrium dissociation constant (KD). Subsequently, those ROIs that observe binding responses were highlighted in red and overlaid onto the SPRM image to more clearly evaluate the extent of cell-specific and nonspecific binding.
For another test, the target named is CA II. The settings on record: ex vitro purified CA II, published values; reference number not given; read-out: Reported values CA II; cited from earlier work.
Setting [2] is: association rate, membrane-bound CA IX, live Ramos B cells.
The mark [3] stands for this setting: dissociation rate, membrane-bound CA IX, live Ramos B cells.

Take `NS(=O)(=O)c1cc(C(=O)O)c(NCc2ccco2)cc1Cl` [Furosemide]: the “k a, SPRM results for CA IX” value in test [1] (setting [2]) was 1.10 × 10^03 M^–1 s^–1. Besides, the “kd, SPRM results for CA IX” value in test [1] (setting [3]) is recorded as 1.16 × 10^–03 s^–1.
Turning to `Nc1ccc(S(N)(=O)=O)cc1` [Sulfanilamide], in test [1], the “k a, SPRM results for CA IX” value is on record as 4.40 × 10^03 M^–1 s^–1 and the “kd, SPRM results for CA IX” value is on record as 1.39 × 10^–03 s^–1.
As for `NS(=O)(=O)c1ccc(C(=O)O)cc1` [4-CBS, 4-Carboxybenzenesulfonamide], the Kd was 870 nM in test [1] (Batch 1), 1000 nM in test [1] (Batch 2), 780 nM in test [1] (Batch 3) and 870 nM in test [1] (SPRM results for CA IX).
`CN(C)c1cccc2c(S(N)(=O)=O)cccc12` [Dansylamide]: the Kd is 760 nM on CA II; 586 nM in test [1] (Batch 1, live Ramos B cells, experiment/batch 1); 542 nM in test [1] (Batch 2, live Ramos B cells, experiment/batch 2); 534 nM in test [1] (Batch 3, live Ramos B cells, experiment/batch 3); 586 nM in test [1] (SPRM results for CA IX, membrane-bound CA IX, live Ramos B cells, Gaussian mean over ROIs). In test [1] (setting [2]), the “k a, SPRM results for CA IX” value was 2.53 × 10^03 M^–1 s^–1. Besides, the “kd, SPRM results for CA IX” value in test [1] (setting [3]) is recorded as 2.34 × 10^–03 s^–1.
